Legend:
Type in all cases: in vivo
[1] = system: blackgrass (Alopecurus myosuroides); assay: Test A greenhouse herbicide test, postemergence; settings: for Blackgrass plant response rating: 0 to 100 scale, 0 is no effect, 100 is complete control
Method in brief: (§1)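 Visual injury score, 0 (no effect) to 100 (complete control), versus untreated controls roughly 10 d after postemergence spray; plants at one- to two-leaf stage, 2 to 10 cm tall, in loam soil and sand, kept in greenhouse.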

[2] = system: galium (catchweed bedstraw, Galium aparine); assay: Test A greenhouse herbicide test, postemergence; settings: for Galium plant response rating: 0 to 100 scale, 0 is no effect, 100 is complete control
Method in brief: as §1

[3] = system: wheat (Triticum aestivum); assay: Test A greenhouse herbicide test, pre- and postemergence; settings: Postemergence; for Wheat plant response rating: 0 to 100 scale, 0 is no effect, 100 is complete control
Text: (§2) Seeds of plant species selected from barnyardgrass (Echinochloa crus-galli), kochia (Kochia scoparia), ragweed (common ragweed, Ambrosia elatior), ryegrass, Italian (Italian ryegrass, Lolium multiflorum), crabgrass, large (large crabgrass, Digitaria sanguinalis), foxtail, giant (giant foxtail, Setaria faberii), momingglory (Ipomoea spp.), pigweed (Amaranthus retroflexus), velvetleaf (Abutilon theophrasti), wheat (Triticum aestivum), and corn (Zea mays) were planted into a blend of loam soil and sand and treated preemergence with a directed soil spray using test chemicals formulated in a non-phytotoxic solvent mixture which included a surfactant.
(§3) At the same time, plants selected from these crop and weed species and also blackgrass (Alopecurus myosuroides), and galium (catchweed bedstraw, Galium aparine) were planted in pots containing the same blend of loam soil and sand and treated with postemergence applications of test chemicals formulated in the same manner. Plants ranged in height from 2 to 10 cm and were in the one- to two-leaf stage for the postemergence treatment. Treated plants and untreated controls were maintained in a greenhouse for approximately 10 d, after which time all treated plants were compared to untreated controls and visually evaluated for injury. Plant response ratings, summarized in Table A, are based on a 0 to 100 scale where 0 is no effect and 100 is complete control. A dash (-) response means no test result.

[4] = system: ragweed (common ragweed, Ambrosia elatior); assay: as above
Text: as §2, §3

[5] = system: kochia (Kochia scoparia); assay: as above
Text: as §2, §3

[6] = system: foxtail, giant (giant foxtail, Setaria faberii); assay: as above
Text: as §2, §3

[7] = system: ryegrass, Italian (Italian ryegrass, Lolium multiflorum); assay: as above
Text: as §2, §3

[8] = system: corn (Zea mays); assay: as above; settings: Postemergence; for Corn plant response rating: 0 to 100 scale, 0 is no effect, 100 is complete control
Text: as §2, §3

[9] = system: pigweed (Amaranthus retroflexus); assay: as above
Text: as §2, §3

[10] = system: barnyardgrass (Echinochloa crus-galli); assay: as above
Text: as §2, §3

[11] = 125 g ai/ha, 0 to 100 scale where 0 is no effect and 100 is complete control
[12] = Postemergence, 125 g ai/ha, 0 to 100 scale where 0 is no effect and 100 is complete control
[13] = Postemergence, 500 g ai/ha, 0 to 100 scale, 0 is no effect, 100 is complete control
[14] = Preemergence, 125 g ai/ha, 0 to 100 scale where 0 is no effect and 100 is complete control
[15] = Preemergence, 500 g ai/ha, 0 to 100 scale where 0 is no effect and 100 is complete control
[16] = 500 g ai/ha, visual rating after approx. 10 d, 0 to 100 scale (0 no effect, 100 complete control)
[17] = Postemergence, 500 g ai/ha, visual rating after approx. 10 d, 0 to 100 scale (0 no effect, 100 complete control)

Row | Structure (SMILES) | Plant response rating, Blackgrass [1, 11] | Plant response rating, Galium [2, 11] | Plant response rating, Wheat [3, 11] | Plant response rating, Ragweed [4, 12] | Plant response rating, Ragweed [4, 15] | Plant response rating, Kochia [5, 12] | Kochia plant response rating [5, 14] | Plant response rating, Kochia [5, 15] | Plant response rating, Foxtail, Giant [6, 12] | Foxtail, Giant plant response rating [6, 14] | Plant response rating, Foxtail, Giant [6, 15] | Plant response rating, Ryegrass, Italian [7, 12] | Plant response rating, Ryegrass, Italian [7, 15] | Plant response rating, Corn [8, 11] | Plant response rating, Pigweed [9, 12] | Pigweed plant response rating [9, 14] | Plant response rating, Pigweed [9, 15] | Plant response rating, Barnyardgrass [10, 12] | Barnyardgrass plant response rating [10, 14] | Plant response rating, Barnyardgrass [10, 15] | other results
1 | CCc1nn(C)c(=O)c(-c2c(C)oc3ccc(Cl)cc23)c1O [Compound 77] | 0 | 20 | 0 | 0 | 0 | 0 | 0 | 0 | 0 | 0 | 10 | 20 | 40 | 0 | 0 | 0 | 0 | 0 | 0 |  | Blackgrass plant response rating ([1]; 500 g ai/ha): 0; Galium plant response rating ([2]; 500 g ai/ha): 60; Wheat plant response rating ([3]; 500 g ai/ha): 0; Ragweed plant response rating [4, 13]: 0; Ragweed plant response rating [4, 14]: 0; Kochia plant response rating [5, 13]: 10; Foxtail, Giant plant response rating [6, 13]: 0; Ryegrass, Italian plant response rating [7, 13]: 60; Ryegrass, Italian plant response rating [7, 14]: 10; Corn plant response rating ([8]; 500 g ai/ha): 0; Pigweed plant response rating [9, 13]: 0; Barnyardgrass plant response rating [10, 13]: 0; Plant response rating, Barnyardgrass ([10]; Preemergence, 500 g ai/ha, 0 to 100 scale, 0 no effect, 100 complete control): 10
2 | Cc1nn(C)c(=O)c(-c2c(Cl)n(C)c3ccccc23)c1O [Compound 95] | 0 | 20 | 0 | 0 | 20 | 0 | 0 | 10 | 0 | 0 | 0 | 10 | 60 | 0 | 0 | 0 | 20 | 0 | 0 | 0 | Blackgrass plant response rating ([1]; 500 g ai/ha): 10; Galium plant response rating ([2]; 500 g ai/ha): 60; Wheat plant response rating ([3]; 500 g ai/ha): 0; Ragweed plant response rating [4, 13]: 10; Ragweed plant response rating [4, 14]: 0; Kochia plant response rating [5, 13]: 10; Foxtail, Giant plant response rating [6, 13]: 0; Ryegrass, Italian plant response rating [7, 13]: 50; Ryegrass, Italian plant response rating [7, 14]: 10; Corn plant response rating ([8]; 500 g ai/ha): 0; Pigweed plant response rating [9, 13]: 0; Barnyardgrass plant response rating [10, 13]: 10
3 | CC(=O)Oc1cnn(C)c(=O)c1-c1c(C)sc2ccccc12 [Compound 120] | 0 | 40 | 0 | 0 | 30 | 0 | 0 | 0 | 0 | 0 | 20 | 20 | 30 | 0 | 20 | 0 | 70 | 0 | 0 | 30 | Plant response rating, Blackgrass [1, 16]: 10; Plant response rating, Galium [2, 16]: 70; Plant response rating, Wheat [3, 16]: 0; Plant response rating, Ragweed [4, 17]: 10; Ragweed plant response rating [4, 14]: 0; Plant response rating, Kochia [5, 17]: 30; Plant response rating, Foxtail, Giant [6, 17]: 10; Plant response rating, Ryegrass, Italian [7, 17]: 80; Ryegrass, Italian plant response rating [7, 14]: 30; Plant response rating, Corn [8, 16]: 0; Plant response rating, Pigweed [9, 17]: 50; Plant response rating, Barnyardgrass [10, 17]: 10
4 | Cc1sc2ccc(C(F)(F)F)cc2c1-c1c(O)c(Cl)nn(C)c1=O [Compound 140] | 30 | 70 | 20 | 90 | 90 | 30 | 0 | 30 | 40 | 50 | 80 | 70 | 90 | 20 | 70 | 50 | 100 | 50 | 50 | 70 | Plant response rating, Blackgrass [1, 16]: 50; Plant response rating, Galium [2, 16]: 90; Plant response rating, Wheat [3, 16]: 70; Plant response rating, Ragweed [4, 17]: 100; Plant response rating, Kochia [5, 17]: 70; Plant response rating, Foxtail, Giant [6, 17]: 90; Plant response rating, Ryegrass, Italian [7, 17]: 100; Plant response rating, Corn [8, 16]: 30; Plant response rating, Pigweed [9, 17]: 90; Plant response rating, Barnyardgrass [10, 17]: 90
5 | Cc1ccc2ccccc2c1-c1c(OS(C)(=O)=O)cnn(C)c1=O [Compound 142] | 10 | 70 | 0 | 0 | 40 | 0 | 0 | 0 | 10 | 10 | 60 | 80 | 80 | 0 | 20 | 60 | 50 | 10 | 10 | 70 | Plant response rating, Blackgrass [1, 16]: 20; Plant response rating, Galium [2, 16]: 80; Plant response rating, Wheat [3, 16]: 0; Plant response rating, Ragweed [4, 17]: 20; Plant response rating, Kochia [5, 17]: 20; Plant response rating, Foxtail, Giant [6, 17]: 20; Plant response rating, Ryegrass, Italian [7, 17]: 90; Plant response rating, Corn [8, 16]: 0; Plant response rating, Pigweed [9, 17]: 50; Plant response rating, Barnyardgrass [10, 17]: 20

Source: US10597388B2, “Pyridazinone herbicides” (FMC CORPORATION, priority 2014, dated 2020)
